Results from PubChem BioAssay AID1259407 (Chemical Carcinogenesis Research Information System (CCRIS), 2018).
Calls of active or inactive are those of the source. How the calls were made is not given here.

System: CCRIS mutagenicity, Ames/micronucleus/aberration tests
Assay: CCRIS mutagenicity studies

In the case of `c1ccccc1`, the mutagenic call (End Point: IN VITRO CHROMOSOMAL ABERRATIONS, Test System: BOVINE PERIPHERAL LYMPHOCYTES, Metabolic Activation: NONE) was “active; positive (structural changes)”, the mutagenic call (End Point: IN VITRO CHROMOSOMAL ABERRATIONS, Test System: BOVINE PERIPHERAL LYMPHOCYTES, Metabolic Activation: NONE, Method: FISH) was “active; positive (structural changes)” and the mutagenic call (End Point: IN VITRO CHROMOSOMAL ABERRATIONS, Test System: BOVINE PERIPHERAL LYMPHOCYTES, Metabolic Activation: RAT, S-9, AROCLOR 1254) was “active; positive (structural changes)”. For the same molecule, the mutagenic call (End Point: IN VITRO CHROMOSOMAL ABERRATIONS, Test System: CHO CELLS, Metabolic Activation: NONE) was “inactive; negative”, the mutagenic call (End Point: IN VITRO CHROMOSOMAL ABERRATIONS, Test System: CHO CELLS, Metabolic Activation: RAT, LIVER, S-9, AROCLOR 1254) was “inactive; negative” and the mutagenic call (End Point: IN VITRO MICRONUCLEUS, Test System: AHH-1 CELLS, Metabolic Activation: NONE) was “inactive; negative”. The mutagenic call (End Point: IN VITRO MICRONUCLEUS, Test System: BOVINE LYMPHOCYTES, Metabolic Activation: NONE) was “active; positive”, the mutagenic call (End Point: IN VITRO MICRONUCLEUS, Test System: BOVINE LYMPHOCYTES, Metabolic Activation: S-9 MIX, AROCLOR 1254) was “active; positive” and the mutagenic call (End Point: IN VITRO MICRONUCLEUS, Test System: CHL/IU CELLS, Metabolic Activation: RAT, LIVER, S-9, PHENOBARBITAL AND 5,6-BENZOFLAVONE) was “active; positive”. The mutagenic call (End Point: IN VITRO MICRONUCLEUS, Test System: MCL-5 CELLS, Metabolic Activation: NONE) was “active; positive”, the mutagenic call (End Point: IN VITRO MICRONUCLEUS, Test System: V79 CELLS, Metabolic Activation: RAT, LIVER, S-9, AROCLOR 1254) was “inactive; negative” and the mutagenic call (End Point: IN VIVO CHROMOSOMAL ABERRATIONS, Test System: DUAL COLOR PAINTING OF CHROMOSOMES 8 AND 21 FROM PERIPHERAL LYMPHOCYTES, METAPHASE SPREADS, Species: HUMAN, Strain/Sex: MALE, FEMALE, Route: INHALATION (WORKPLACE), Method: FISH) was “active; positive”. The mutagenic call (End Point: IN VIVO CHROMOSOMAL ABERRATIONS, Test System: HUMAN PERIPHERAL LYMPHOCYTES, Species: HUMAN, Route: INHALATION (WORKPLACE), Method: FISH) was “breaks in chromosomes 1 and 9”, the mutagenic call (End Point: IN VIVO CHROMOSOMAL ABERRATIONS, Test System: LYMPHOCYTES, Species: HUMAN, Route: PROBABLY INHALATION, Method: FISH (INTERPHASE OR METAPHASE; CHROMOSOMES 7, 8, 9)) was “active; positive (structural and ploidy changes)” and the mutagenic call (End Point: IN VIVO CHROMOSOMAL ABERRATIONS, Test System: PERIPHERAL BLOOD LYMPHOCYTES, Species: HUMAN (COKE OVEN WORKERS), Route: INHALATION, Method: FISH) was “active; positive (monosomy and trisomy of chromosomes 8 and 21)”. The mutagenic call (End Point: IN VIVO CHROMOSOMAL ABERRATIONS, Test System: PERIPHERAL BLOOD LYMPHOCYTES, Species: HUMAN (PETROLEUM REFINERY WORKERS), Strain/Sex: MALE, Route: INDUSTRIAL EXPOSURE) was “active; positive”, the mutagenic call (End Point: IN VIVO CHROMOSOMAL ABERRATIONS, Test System: PERIPHERAL HUMAN LYMPHOCYTES, Species: HUMAN, Route: INDUSTRIAL EXPOSURE (INHALATION)) was “active; positive (ploidy)” and the mutagenic call (End Point: IN VIVO MICRONUCLEUS, Test System: BONE MARROW POLYCHROMATIC ERYTHROCYTES, Species: MOUSE, Strain/Sex: CD-1/MALE, Route: ORAL (GAVAGE)) was “active; positive”. The mutagenic call (End Point: IN VIVO MICRONUCLEUS, Test System: BONE MARROW, Species: MOUSE, Strain/Sex: B6C3F1/MALE, Route: GAVAGE) was “active; positive”, the mutagenic call (End Point: IN VIVO MICRONUCLEUS, Test System: SPLENOCYTES, Species: MOUSE, Strain/Sex: CD-1/MALE, Route: ORAL (GAVAGE)) was “active; positive” and the mutagenic call (End Point: In vivo micronucleus, Test System: Bone marrow polychromatic erythrocytes, Species: Mouse, Strain/Sex: CD-1/Male, Route: Inhalation) was “active; positive”. The mutagenic call (End Point: In vivo micronucleus, Test System: Peripheral blood normochromatic erythrocytes, Species: Mouse, Strain/Sex: B6.129-Cdkn2atm1Rdp (i.e. Haploinsufficient p16Ink4a/p19Arf)/Female, Route: Gavage) was “active; positive (deletions in the cdkn2a gene predispose rodents to cancer at multiple”, the mutagenic call (End Point: In vivo micronucleus, Test System: Peripheral blood normochromatic erythrocytes, Species: Mouse, Strain/Sex: B6.129-Cdkn2atm1Rdp (i.e. Haploinsufficient p16Ink4a/p19Arf)/Male, Route: Gavage) was “active; positive (deletions in the cdkn2a gene predispose rodents to cancer at multiple” and the mutagenic call (Test System: AMES SALMONELLA TYPHIMURIUM, Strain/Indicator: TA97, Metabolic Activation: HAMSTER LIVER S-9, AROCLOR 1254 (10 OR 30%), Method: PREINCUBATION) was “inactive; negative”. For the same molecule, the mutagenic call (Test System: AMES SALMONELLA TYPHIMURIUM, Strain/Indicator: TA97, Metabolic Activation: NONE, Method: PREINCUBATION) was “inactive; negative”, the mutagenic call (Test System: AMES SALMONELLA TYPHIMURIUM, Strain/Indicator: TA97, Metabolic Activation: NONE, Method: STANDARD PLATE) was “inactive; negative” and the mutagenic call (Test System: AMES SALMONELLA TYPHIMURIUM, Strain/Indicator: TA97, Metabolic Activation: RAT LIVER S-9, AROCLOR 1254 (10 OR 30%), Method: PREINCUBATION) was “inactive; negative”. For the same molecule, the mutagenic call (Test System: AMES SALMONELLA TYPHIMURIUM, Strain/Indicator: TA97, Metabolic Activation: RAT, LIVER, S-9, AROCLOR 1254, Method: STANDARD PLATE) was “inactive; negative”, the mutagenic call (Test System: AMES SALMONELLA TYPHIMURIUM, Strain/Indicator: TA97, Metabolic Activation: S-9, Method: STANDARD PLATE) was “inactive; negative” and the mutagenic call (Test System: AMES SALMONELLA TYPHIMURIUM, Strain/Indicator: TA98, Metabolic Activation: HAMSTER LIVER S-9, AROCLOR 1254 (10 OR 30%), Method: PREINCUBATION) was “inactive; negative”. For the same molecule, the mutagenic call (Test System: AMES SALMONELLA TYPHIMURIUM, Strain/Indicator: TA98, Metabolic Activation: NONE, Method: PREINCUBATION) was “inactive; negative”, the mutagenic call (Test System: AMES SALMONELLA TYPHIMURIUM, Strain/Indicator: TA98, Metabolic Activation: RAT LIVER S-9, AROCLOR 1254 (10 OR 30%), Method: PREINCUBATION) was “inactive; negative” and the mutagenic call (Test System: AMES SALMONELLA TYPHIMURIUM, Strain/Indicator: TA98, Metabolic Activation: RAT, LIVER, S-9, AROCLOR 1254, Method: DESICCATOR) was “inactive; negative”. For the same molecule, the mutagenic call (Test System: AMES SALMONELLA TYPHIMURIUM, Strain/Indicator: TA98, Metabolic Activation: RAT, LIVER, S-9, AROCLOR 1254, Method: STANDARD PLATE) was “inactive; negative”, the mutagenic call (Test System: AMES SALMONELLA TYPHIMURIUM, Strain/Indicator: TA98, Metabolic Activation: RAT, LIVER, S-9, AROCLOR, Method: STANDARD PLATE) was “inactive; negative” and the mutagenic call (Test System: AMES SALMONELLA TYPHIMURIUM, Strain/Indicator: TA98, Metabolic Activation: RAT, LIVER, S-9, ETHANOL, Method: STANDARD PLATE) was “inactive; negative”. For the same molecule, the mutagenic call (Test System: AMES SALMONELLA TYPHIMURIUM, Strain/Indicator: TA98, Metabolic Activation: RAT, LIVER, S-9, PHENOBARBITAL, Method: STANDARD PLATE) was “inactive; negative”, the mutagenic call (Test System: AMES SALMONELLA TYPHIMURIUM, Strain/Indicator: TA98, Metabolic Activation: RAT, LIVER, S-9, PYRAZOLE, Method: STANDARD PLATE) was “inactive; negative” and the mutagenic call (Test System: AMES SALMONELLA TYPHIMURIUM, Strain/Indicator: TA98, Metabolic Activation: S-9, Method: STANDARD PLATE) was “inactive; negative”. For the same molecule, the mutagenic call (Test System: AMES SALMONELLA TYPHIMURIUM, Strain/Indicator: TA100, Metabolic Activation: HAMSTER LIVER S-9, AROCLOR 1254 (10 OR 30%), Method: PREINCUBATION) was “inactive; negative”, the mutagenic call (Test System: AMES SALMONELLA TYPHIMURIUM, Strain/Indicator: TA100, Metabolic Activation: NONE, Method: DESICCATOR) was “inactive; negative” and the mutagenic call (Test System: AMES SALMONELLA TYPHIMURIUM, Strain/Indicator: TA100, Metabolic Activation: NONE, Method: PREINCUBATION) was “inactive; negative”. For the same molecule, the mutagenic call (Test System: AMES SALMONELLA TYPHIMURIUM, Strain/Indicator: TA100, Metabolic Activation: RAT LIVER S-9, AROCLOR 1254 (10 OR 30%), Method: PREINCUBATION) was “inactive; negative”, the mutagenic call (Test System: AMES SALMONELLA TYPHIMURIUM, Strain/Indicator: TA100, Metabolic Activation: RAT, LIVER, S-9, AROCLOR 1254, Method: DESICCATOR) was “inactive; negative” and the mutagenic call (Test System: AMES SALMONELLA TYPHIMURIUM, Strain/Indicator: TA100, Metabolic Activation: RAT, LIVER, S-9, AROCLOR 1254, Method: STANDARD PLATE) was “inactive; negative”. For the same molecule, the mutagenic call (Test System: AMES SALMONELLA TYPHIMURIUM, Strain/Indicator: TA100, Metabolic Activation: RAT, LIVER, S-9, AROCLOR, Method: STANDARD PLATE) was “inactive; negative” and the mutagenic call (Test System: AMES SALMONELLA TYPHIMURIUM, Strain/Indicator: TA100, Metabolic Activation: RAT, LIVER, S-9, ETHANOL, Method: STANDARD PLATE) was “inactive; negative”.
